Structures can show the parent of a compound that is named as a salt. Where two headings read alike, the source gives them in different places.
What was measured:
[1] = Parallel Artificial Membrane Permeation Assay (PAMPA), Pre-coated PAMPA Plate System (Corning)
Experimental: Reference Example 14, the Compound of Reference Example 16, and the Compound of Comparative Example was Evaluated by Using Pre-Coated PAMPA PlateSystem (Corning)
A frozen-stored, Pre-coated PAMPA Plate System was allowed to stand at room temperature for thirty minutes or more. Subsequently, 320 μL of the standard solution was added to a Donor side plate of Pre-coated PAMPA Plate System, and 200 μL of the PBS containing 20% of methanol was added to an Acceptor side plate. Both of the plates were set for the system, and the plates allowed to stand at room temperature for five hours. The reaction liquid in each well of the Donor side and Acceptor side plates was subjected to LC/MS analysis (hereinafter, LC/MS-3), and the concentration of the compounds in each well calculated.
Using the obtained concentration of the compounds in the reaction liquid in each well, the membrane permeability coefficients (Pe) (cm/s) were calculated by the following formula: Cequilibrium=[…] Pe=[−ln(1−CA/Cequilibrium)]/S×(1/VD+1/VA)×t Cequilibrium: Equilibrium concentration of the wells in the Donor side and Acceptor side plates CD: Concentration after five hours of the wells in the Donor side plate (mmol/L) VD: Volume of the standard solution added to the wells in the Donor side plate (0.32 mL) CA: Concentration after five hours of the wells in the Acceptor side plate (mmol/L) VA: Volume of the PBS containing 20% of methanol added to the wells in the Acceptor side plate (0.2 mL) S: Surface of the membrane (0.3 cm^2) t: Standing time 18,000 s (=5 hrs).

[2] = test system: SKOV-3 cells; experiment: In vitro cytotoxicity of the peptide derivative (I), MTS method, SKOV-3 cells; format: cell-based, human
Text: (§1) The cytotoxicity of the peptide derivative (I) or a pharmaceutically acceptable salt thereof, or the conjugate including the peptide derivative (I) or a pharmaceutically acceptable salt thereof can be evaluated with an in vitro study. Examples of the in vitro studies include the trypan blue dye exclusion method, the lactate dehydrogenase (LDH) activity assay, [^3H]thymidine incorporation method, or propidium iodide nuclear stain that each measures the number of dead cells or surviving cells post treated with the compound; a method using dyes such as MTT, MTS, and WST (Current Protocol in Toxicology, (2000), 2.6.1-2.6.27); or a method in which the amount of ATP is measured using CellTiter-Glow (Promega Corporation) and the like, and preferably include the method in which the number of surviving cells post treated with the compound is measured by using the MTS method to determine values of the cytotoxicity at that time from 50% effect-concentration (EC50). Furthermore, in the evaluation of the cytotoxicity of the conjugate including the peptide derivative (I) or a pharmaceutically acceptable salt thereof, preferred method is the one that for a certain time, cells are treated with a medium containing the compound, the cells are then transferred to a medium not containing the compound, and the number of surviving cells are measured after cultivation for additional certain time (Bioconjugate Chemistry., 2014; 25: pp. 560-568). For the in vitro studies, human ovarian cancer cell SKOV-3 cells, human alveolar basement epithelial gland cancer cell A549 cells, mouse lymphocytic leukocyte L1210 cells and the like are used.

[3] = test system: L1210 cells; experiment: In vitro cytotoxicity of the peptide derivative (I), MTS method, L1210 cells; format: cell-based, mouse
Text: as §1

[4] = test system: A549 cells; experiment: In vitro cytotoxicity of the peptide derivative (I), MTS method, A549 cells; format: cell-based, human
Text: as §1

[5] = test system: L1210 cells; format: cell-based, mouse; conditions: 48 h
Experimental: (§2) The compound of Example 12 and the compound of Example 13 were measured for cytotoxicity thereof on SKOV-3 cells, A549 cells, and L1210 cells by using MTS method.
(§3) An evaluation method of the compound of Example 12 is as follows: To each cell culturing in a medium that is absent of folate, the compound of Example 12 was treated for two hours, and then the cells transferred to a fresh medium absent of the compound and continuously maintained and cultured for 48 hours. Surviving cells after 48 hours were counted by using MTS method.
as §3, with “13” for “12”, “six” for “two”
(§4) It has been reported that SKOV-3 cells and L1210 cells express folate acceptors in medium to high expression level on their cell surface. It has been reported that A549 cells express folate acceptors in low expression level or undetectable level on its cell surface (Analytical Biochemistry, (2005), 338: pp. 284-293; Molecular Cancer Therapeutics, (2015), 14: pp. 1605 to 13).

[6] = test system: A549 cells; format: cell-based, human; conditions: 48 h
Experimental: as §2, §3
as §3, with “13” for “12”, “six” for “two”
as §4

[7] = test system: SKOV-3 cells; format: cell-based, human; conditions: 48 h
Experimental: as §2, §3
as §3, with “13” for “12”, “six” for “two”
as §4

CC[C@H](C)[C@@H]([C@@H](CC(=O)N1CCC[C@H]1[C@H](OC)[C@@H](C)C(=O)N[C@@H](Cc1ccccc1)c1nc(C(=O)NCCNC)cs1)OC)N(C)C(=O)[C@@H](NC(=O)[C@H](C(C)C)N(C)C)C(C)C [Reference Example 14, 2-((S)-1-(((2S,3R)-3-((S)-1-((3R,4S,5S)-4-((S)-2-((S)-2-(dimethylamino)-3-methylbutanamido)-N,3-dimethylbutanamido)-3-methoxy-5-methylheptanoyl)pyrrolidin-2-yl)-3-methoxy-2-methylpropanamido)-2-phenylethyl)-N-(2-(methylamino)ethyl)thiazole-4-carboxamidedihydrochloride, reference compound]
Papp at 5 h, 200 μmol/L [1]: 0.004 ×10⁻⁶ cm/s | EC50 ([2]; Homo sapiens, SK-OV-3): > 10 nM | EC50 ([3]; Mus musculus): 26.8 nM | EC50 ([4]; Homo sapiens): 9.85 nM

CCNC(=O)c1csc([C@H](Cc2ccccc2)NC(=O)[C@@H](C)[C@@H](OC)[C@@H]2CCCN2C(=O)C[C@@H](OC)[C@H]([C@@H](C)CC)N(C)C(=O)[C@@H](NC(=O)[C@H](C(C)C)N(C)C)C(C)C)n1 [Comparative Example, reference compound]
Membrane Permeability Coefficient ([1]; 200 μmol/L in PBS containing 20% of methanol, room temperature, five hours, N.D. = Acceptor side concentration less than lower limit of determinate quantity): 1.68 10^−6 cm/s | EC50 [2]: 0.55 nM | EC50 [3]: 6.51 nM | EC50 [4]: 0.74 nM

CC[C@H](C)[C@@H]([C@@H](CC(=O)N1CCC[C@H]1[C@H](OC)[C@@H](C)C(=O)N[C@@H](Cc1ccccc1)c1nc(C(=O)N(C)CCS)cs1)OC)N(C)C(=O)[C@@H](NC(=O)[C@H](C(C)C)N(C)C)C(C)C [Example 3]
Papp at 5 h, 200 μmol/L [1]: 1.14 ×10⁻⁶ cm/s | EC50 ([2]; Homo sapiens, SK-OV-3): 1.05 nM | EC50 ([3]; Mus musculus): 6.96 nM | EC50 ([4]; Homo sapiens): 1.22 nM

CC[C@H](C)C([C@@H](CC(=O)N1CCC[C@H]1[C@H](OC)[C@@H](C)C(=O)N[C@@H](Cc1ccccc1)c1nc(C(=O)N(C)CCSSCCN(C)C(=O)CCOCCOCCOCCOCCOCCOCCOCCOCCOCCOCCOCCOCCNC(=O)CCN2C(=O)CC(SCCNC(=O)[C@H](CCC(=O)O)NC(=O)CC[C@H](NC(=O)c3ccc(NCc4c[nH]c5nc(N)nc(=O)c-5n4)cc3)C(=O)O)C2=O)cs1)OC)N(C)C(=O)[C@@H](NC(=O)[C@H](C(C)C)N(C)C)C(C)C (stereo in doubt) [Example 13]
EC50 [5]: 36 nM | EC50 [6]: > 300 nM | EC50 [7]: 19.4 nM

From patent publication US10792365B2, “Peptide derivative and use thereof” (Toray Industries, Inc., priority 2016, dated 2020)
